{"source": "paper PMC12060149", "about": "(RSC Advances, 2025)", "origin": "cited, not measured here", "key": {"[1]": {"molecular_target": "ACE2 (Homo sapiens, UniProt Q9BYF1)", "sequence (Q9BYF1 18-805)": "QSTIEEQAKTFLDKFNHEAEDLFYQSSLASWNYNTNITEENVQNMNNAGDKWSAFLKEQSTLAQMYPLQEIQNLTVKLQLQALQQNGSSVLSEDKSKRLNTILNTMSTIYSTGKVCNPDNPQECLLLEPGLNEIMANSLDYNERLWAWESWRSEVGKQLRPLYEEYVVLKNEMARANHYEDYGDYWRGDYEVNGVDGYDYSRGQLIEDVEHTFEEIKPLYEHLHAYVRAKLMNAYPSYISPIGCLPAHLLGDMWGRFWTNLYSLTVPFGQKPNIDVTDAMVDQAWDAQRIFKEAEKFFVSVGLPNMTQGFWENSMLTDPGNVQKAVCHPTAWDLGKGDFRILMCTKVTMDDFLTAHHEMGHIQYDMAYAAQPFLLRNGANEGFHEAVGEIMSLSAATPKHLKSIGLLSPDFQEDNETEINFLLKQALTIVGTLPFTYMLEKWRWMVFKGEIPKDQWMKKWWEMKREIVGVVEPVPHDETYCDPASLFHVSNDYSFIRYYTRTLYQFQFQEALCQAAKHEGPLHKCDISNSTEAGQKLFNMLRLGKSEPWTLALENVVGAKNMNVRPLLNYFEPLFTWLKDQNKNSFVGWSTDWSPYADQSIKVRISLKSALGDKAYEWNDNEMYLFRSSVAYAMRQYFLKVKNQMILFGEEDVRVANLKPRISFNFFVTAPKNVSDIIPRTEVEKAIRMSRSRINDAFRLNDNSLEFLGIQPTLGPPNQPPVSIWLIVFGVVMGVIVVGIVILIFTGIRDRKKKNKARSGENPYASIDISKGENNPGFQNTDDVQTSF"}, "[2]": {"test_system": "breast cancer tumor", "settings": "mice"}, "[3]": {"test_system": "MCF-7"}}}
{"molecule": "NCCC(=O)N[C@@H](Cc1cnc[nH]1)C(=O)O", "note": "[carnosine, Carnosine]", "values": [{"measurement": "concentration range of mild ACE2 inhibition", "setting": "[1]", "result": "100 to 300", "unit": "mM"}, {"measurement": "breast cancer tumor size", "setting": "[2]", "result": "reduces the breast cancer tumor size"}, {"measurement": "MCF-7 proliferation", "setting": "[3]; carnosine in the 100–300 mM range", "result": "increased but non-significantly"}, {"measurement": "IC50", "setting": "[3]; read-out: IC50 of antiproliferative effect, two other research groups", "result": "~68", "unit": "mM"}]}
